{
  "source": "patent US20240156999A1",
  "about": "“MULTIMERIC CHELATOR COMPOUNDS FOR USE IN TARGETED RADIOTHERAPY” (Bayer Aktiengesellschaft, priority 2021, published 2024)",
  "key": {"[1]": {"test": "Radiochemical purity (RCP) by iTLC after radiolabeling with Ac-225", "assay_type": "physicochemical", "details": "labelling concentration 0.02 mM", "procedure": "(§1) Aliquots of Ac-225 in 0.04 M HCl or Ra-223 in 0.05 M HCl were withdrawn into Eppendorf tubes. The radioactivity in each tube was measured by HPGe detector. Solutions of compounds in 0.1 M sodium acetate, pH 5-5.5 (with additional 0.1 M NaCl for ACC solutions) were added to the tubes. RAC was in the range of 1-5 M Bq/mL and specific activity in the range of 2-200 kBq/nmol. The labelling solutions were left for 60-90 min at room temperature.\n(§2) Radiochemical purity (RCP) of the labeled compounds was determined by iTLC. iTLC strips were cut from silica impregnated chromatography paper, approx. 1 cm wide and 11 cm long. The strips were marked with a pen at 1 cm (application point), 4 cm (cut line for ACCs) or 5 cm (cut line for chelators) and 8 cm (front line). A beaker was filled up to 0.5 cm with 0.1 M citrate in 0.9% NaCl, pH 5.5. 1-10 μL of the radiolabeled compound was added to the application point and the strips immediately placed vertically in the beaker. The strips were removed when the solvent front reached the front line and then cut in two sections at the cut line. Each section was measured using a HPGe detector (ORTEC) to determine the radioactivity origin from the nuclide of interest. The RCP, in percentage, forthe nuclide of interest was calculated using the following equation: […]"}, "[2]": {"test": "Radiochemical purity (RCP) by iTLC after radiolabeling with Ra-223", "assay_type": "physicochemical", "details": "for labelling efficiency with radium-223: compared to monomeric macropa, at 0.1 and 0.02 mM, as low as 0.005 mM for Oct2; for RCP Ra-223: iTLC", "procedure": "as §1, §2"}, "[3]": {"details": "cited from earlier work"}, "[4]": {"test": "Radio-HPLC analysis of Ra-223 labelled compound with peak fractioning", "assay_type": "physicochemical", "procedure": "Radiolabeled compounds were analyzed by radio-HPLC using either a) Vanquish HPLC system (Thermo) equipped with a diode array detector and a Flowstar LB 514 radio detector (Berthold technologies); or b) an 1290 Infinity-II HPLC system (Agilent) equipped with a diode array detector and flow-count radio detector (Eckert & Ziegler).\nLabelled chelator compounds were eluted using A=40 mM TRIS/6 mM citrate/2 mM EDTA and B=ACN/MeOH (8:2); aKinetexC18 (30×2.1 mm), 1.7 μm, 100 Å, Phenomenex); gradient 5-50% B for 10 min; flow rate of 0.3 mL/min or a Discovery RP amide c16 (150×2.1mm), 5 um, 100 Å, Gradient: 5-50% B for 12.5 min; flow rate of 0.6 mL/min.\nRadio-HPLC peak fractioning was performed to determine the radionuclide(s) associated to each radio peak. The collected peak fractions were analysed using an HPGe detector."}, "[5]": {"details": "labelling concentration 0.02 mM"}, "[6]": {"details": "labelling concentration 0.005 mM"}, "[7]": {"details": "labelling concentration 0.27 mM"}},
  "data": [
    {"smiles": "COC(=O)c1cccc(CN2CCOCCOCCN(Cc3cc(NC(=O)COCC(=O)NCCN(CCN)CCCN(CCN)CCNC(=O)COCC(=O)Nc4cc(CN5CCOCCOCCN(Cc6cccc(C(=O)OC)n6)CCOCCOCC5)nc(C(=O)OC)c4)cc(C(=O)OC)n3)CCOCCOCC2)n1", "note": "[Dim1, Dimethyl 4,4′-{[9,13-bis(2-aminoethyl)-1,5,17,21-tetraoxo-3,19-dioxa-6,9,13,16-tetraazahenicosane-1,21-diyl]diimino}bis{6-[(16-{[6-(methoxycarbonyl)pyridin-2-yl]methyl}-1,4,10,13-tetraoxa-7,16-diazacyclooctadecan-7-yl)methyl]pyridine-2-carboxylate}]", "values": [
      {"measurement": "RCP Ac-225", "setting": "[1]", "value": 100, "unit": "%"},
      {"measurement": "labelling efficiency with radium-223", "setting": "[2]", "value": "high labelling efficiency"},
      {"measurement": "RCP Ra-223", "setting": "[2]; [5]", "value": 80, "unit": "%"}
    ]},
    {"smiles": "O=C(O)c1cccc(CN2CCOCCOCCN(Cc3cccc(CN4CCOCCOCCN(Cc5cccc(C(=O)O)n5)CCOCCOCC4)n3)CCOCCOCC2)n1", "note": "[Dim2, 6,6′-[pyridine-2,6-diylbis(methylene-1,4,10,13-tetraoxa-7,16-diazacyclooctadecane-16,7-diylmethylene)]dipyridine-2-carboxylic acid]", "values": [
      {"measurement": "RCP Ac-225", "setting": "[1]", "value": 100, "unit": "%"},
      {"measurement": "RCP Ra-223", "setting": "[2]; labelling concentration 0.2 mM", "value": 11, "unit": "%"}
    ]},
    {"smiles": "O=C(O)c1cccc(CN2CCOCCOCCN(Cc3cccc(C(=O)NCCCC[C@@H](NC(=O)c4cccc(CN5CCOCCOCCN(Cc6cccc(C(=O)O)n6)CCOCCOCC5)n4)C(=O)O)n3)CCOCCOCC2)n1", "note": "[Dim3, 6-[[16-[[6-[[(5R)-5-carboxy-5-[[6-[[16-[(6-carboxy-2-pyridyl)methyl]-1,4,10,13-tetraoxa-7,16-diazacyclooctadec-7-yl]methyl]pyridine-2-carbonyl]amino]pentyl]carbamoyl]-2-pyridyl]methyl]-1,4,10,13-tetraoxa-7,16-diazacyclooctadec-7-yl]methyl]pyridine-2-carboxylic acid]", "values": [
      {"measurement": "RCP Ac-225", "setting": "[1]", "value": 100, "unit": "%"},
      {"measurement": "RCP Ra-223", "setting": "[2]; labelling concentration 0.2 mM", "value": 32, "unit": "%"}
    ]},
    {"smiles": "O=C(O)c1cccc(CN2CCOCCOCCN(Cc3cccc(C(=O)O)n3)CCOCCOCC2)n1", "note": "[Macropa, 6,6′-[1,4,10,13-tetraoxa-7,16-diazacyclooctadecane-7,16-diylbis(methylene)]dipyridine-2-carboxylic acid, reference compound]", "values": [
      {"measurement": "RCP Ac-225", "setting": "[1]", "value": 100, "unit": "%"},
      {"measurement": "selectivity for large over small alkaline earth metals", "setting": "[3]", "value": "excellent selectivity"},
      {"measurement": "affinity for Ba2+", "setting": "[3]; pH 7.4", "value": "highest affinity"},
      {"measurement": "complexation of radium-223", "setting": "[2]; at 0.1, 0.02 and 0.005 mM concentrations", "value": "no complexation of radium-223 was observed"},
      {"measurement": "RCP Ra-223", "setting": "[2]; [6]", "value": 8, "unit": "%"},
      {"measurement": "RCP Ra-223", "setting": "[2]; [7]", "value": 12, "unit": "%"}
    ]},
    {"smiles": "Nc1cc(CN2CCOCCOCCN(Cc3cccc(C(=O)O)n3)CCOCCOCC2)nc(C(=O)O)c1", "note": "[Macropa-NH2, reference compound]", "values": [
      {"measurement": "RCP Ac-225", "setting": "[1]", "value": 99, "unit": "%"},
      {"measurement": "RCP Ra-223", "setting": "[2]; labelling concentration 0.1 mM", "value": 2, "unit": "%"},
      {"measurement": "RCP Ra-223", "setting": "[2]; [7]", "value": 12, "unit": "%"}
    ]},
    {"smiles": "O=C(CCc1cc(CN2CCOCCOCCN(Cc3cccc(C(=O)O)n3)CCOCCOCC2)nc(C(=O)O)c1)NCCCC[C@H](NC(=O)CCc1cc(CN2CCOCCOCCN(Cc3cccc(C(=O)O)n3)CCOCCOCC2)nc(C(=O)O)c1)C(=O)NCCN(CCCN(CCNC(=O)[C@H](CCCCNC(=O)CCc1cc(CN2CCOCCOCCN(Cc3cccc(C(=O)O)n3)CCOCCOCC2)nc(C(=O)O)c1)NC(=O)CCc1cc(CN2CCOCCOCCN(Cc3cccc(C(=O)O)n3)CCOCCOCC2)nc(C(=O)O)c1)CCNC(=O)[C@H](CCCCNC(=O)CCc1cc(CN2CCOCCOCCN(Cc3cccc(C(=O)O)n3)CCOCCOCC2)nc(C(=O)O)c1)NC(=O)CCc1cc(CN2CCOCCOCCN(Cc3cccc(C(=O)O)n3)CCOCCOCC2)nc(C(=O)O)c1)CCNC(=O)[C@H](CCCCNC(=O)CCc1cc(CN2CCOCCOCCN(Cc3cccc(C(=O)O)n3)CCOCCOCC2)nc(C(=O)O)c1)NC(=O)CCc1cc(CN2CCOCCOCCN(Cc3cccc(C(=O)O)n3)CCOCCOCC2)nc(C(=O)O)c1", "note": "[Oct2]", "values": [
      {"measurement": "labelling efficiency with radium-223", "setting": "[2]", "value": "high labelling efficiency"},
      {"measurement": "RCP Ra-223", "setting": "[2]; [6]", "value": 64, "unit": "%"}
    ]},
    {"smiles": "COC(=O)c1cccc(CN2CCOCCOCCN(Cc3cc(NC(=O)COCC(=O)NCCN(CCCN(CCNC(=O)COCC(=O)Nc4cc(CN5CCOCCOCCN(Cc6cccc(C(=O)OC)n6)CCOCCOCC5)nc(C(=O)OC)c4)CCNC(=O)COCC(=O)Nc4cc(CN5CCOCCOCCN(Cc6cccc(C(=O)OC)n6)CCOCCOCC5)nc(C(=O)OC)c4)CCNC(=O)COCC(=O)Nc4cc(CN5CCOCCOCCN(Cc6cccc(C(=O)OC)n6)CCOCCOCC5)nc(C(=O)OC)c4)cc(C(=O)OC)n3)CCOCCOCC2)n1", "note": "[Tet1]", "values": [
      {"measurement": "RCP Ac-225", "setting": "[1]", "value": 99, "unit": "%"},
      {"measurement": "labelling efficiency with radium-223", "setting": "[2]", "value": "high labelling efficiency"},
      {"measurement": "RCP Ra-223", "setting": "[2]; [5]", "value": 95, "unit": "%"},
      {"measurement": "labeling of solution with Ra-223", "setting": "[4]; 0.02 mM solution", "value": "efficient labeling"},
      {"measurement": "wash through of free radioactivity in the void volume", "setting": "[4]; radio HPLC, Ra-223 labelled", "value": "almost no wash through of free radioactivity"}
    ]},
    {"smiles": "O=C(COCC(=O)Nc1cc(CN2CCOCCOCCN(Cc3cccc(C(=O)O)n3)CCOCCOCC2)nc(C(=O)O)c1)NCCN(CCCN(CCNC(=O)COCC(=O)Nc1cc(CN2CCOCCOCCN(Cc3cccc(C(=O)O)n3)CCOCCOCC2)nc(C(=O)O)c1)CCNC(=O)COCC(=O)Nc1cc(CN2CCOCCOCCN(Cc3cccc(C(=O)O)n3)CCOCCOCC2)nc(C(=O)O)c1)CCNC(=O)COCC(=O)Nc1cc(CN2CCOCCOCCN(Cc3cccc(C(=O)O)n3)CCOCCOCC2)nc(C(=O)O)c1", "note": "[Tet2, 4,4′-[(9,13-bis{2-[2-(2-{[2-carboxy-6-({16-[(6-carboxypyridin-2-yl)methyl]-1,4,10,13-tetraoxa-7,16-diazacyclooctadecan-7-yl}methyl)pyridin-4-yl]amino}-2-oxoethoxy)acetamido]ethyl}-1,5,17,21-tetraoxo-3,19-dioxa-6,9,13,16-tetraazahenicosane-1,21-diyl)diimino]bis[6-({16-[(6-carboxypyridin-2-yl)methyl]-1,4,10,13-tetraoxa-7,16-diazacyclooctadecan-7-yl}methyl)pyridine-2-carboxylic acid]]", "values": [
      {"measurement": "labelling efficiency with radium-223", "setting": "[2]", "value": "high labelling efficiency"},
      {"measurement": "RCP Ra-223", "setting": "[2]; [5]", "value": 74, "unit": "%"}
    ]},
    {"smiles": "O=C(CCc1cc(CN2CCOCCOCCN(Cc3cccc(C(=O)O)n3)CCOCCOCC2)nc(C(=O)O)c1)NCCN(CCCN(CCNC(=O)CCc1cc(CN2CCOCCOCCN(Cc3cccc(C(=O)O)n3)CCOCCOCC2)nc(C(=O)O)c1)CCNC(=O)CCc1cc(CN2CCOCCOCCN(Cc3cccc(C(=O)O)n3)CCOCCOCC2)nc(C(=O)O)c1)CCNC(=O)CCc1cc(CN2CCOCCOCCN(Cc3cccc(C(=O)O)n3)CCOCCOCC2)nc(C(=O)O)c1", "note": "[Tet5, 4,4′-[7,11-bis(2-{3-[2-carboxy-6-({16-[(6-carboxypyridin-2-yl)methyl]-1,4,10,13-tetraoxa-7,16-diazacyclooctadecan-7-yl}methyl)pyridin-4-yl]propanamido}ethyl)-3,15-dioxo-4,7,11,14-tetraazaheptadecane-1,17-diyl]bis[6-({16-[(6-carboxypyridin-2-yl)methyl]-1,4,10,13-tetraoxa-7,16-diazacyclooctadecan-7-yl}methyl)pyridine-2-carboxylic acid]]", "values": [
      {"measurement": "labelling efficiency with radium-223", "setting": "[2]", "value": "high labelling efficiency"},
      {"measurement": "RCP Ra-223", "setting": "[2]; [6]", "value": 36, "unit": "%"},
      {"measurement": "RCP Ra-223", "setting": "[2]; [5]", "value": 95, "unit": "%"}
    ]},
    {"smiles": "COC(=O)c1cccc(CN2CCOCCOCCN(Cc3cc(NC(=O)COCC(=O)NCCN(CCN)CCCN(CCNC(=O)COCC(=O)Nc4cc(CN5CCOCCOCCN(Cc6cccc(C(=O)OC)n6)CCOCCOCC5)nc(C(=O)OC)c4)CCNC(=O)COCC(=O)Nc4cc(CN5CCOCCOCCN(Cc6cccc(C(=O)OC)n6)CCOCCOCC5)nc(C(=O)OC)c4)cc(C(=O)OC)n3)CCOCCOCC2)n1", "note": "[Tri1]", "values": [
      {"measurement": "labelling efficiency with radium-223", "setting": "[2]", "value": "high labelling efficiency"},
      {"measurement": "RCP Ra-223", "setting": "[2]; [5]", "value": 89, "unit": "%"}
    ]}
  ]
}
